Results from patent publication EP3431088A1, “MNTBAP FOR USE IN INDUCING A TRANSIENT IMMUNE TOLERANCE” (priority 2017, dated 2019).

How the values were obtained:
injected TA muscle = assay: IM rAAV gene transfer: histology and RT-PCR of injected TA muscle; format: in vivo, C57BL/6 mice; settings: fifteen days post IM rAAV1 vector injection
CD4 and P56^Lck = assay: CD4 immunoprecipitation probed with anti-p56Lck; format: cell-based; settings: viable murine splenic enriched CD4+ T cells, 2 hours, 400 µM
Procedure: Cells, harvested after 2 hours of culture with or without MnTBAP, are resuspended in solubilization buffer containing 1% NP-40 (Sigma-Aldrich), 0.1 M (NH4)2SO4, 20 mM Tris (pH 7.5), 10% glycerol, 25 mM NaF (Sigma-Aldrich), 1 mM Na3VO4 (Thermo Fisher Scientific, Villebon-sur-Yvette, France) and 1x protease inhibitor mixture (Roche, Basel, Switzerland). After 30 minutes of incubation under gentle agitation, cell lysates are centrifuged at 14,000 x g for 30 minutes. Lysates are frozen in aliquots at -20°C or used immediately. Immunoprecipitation is performed by incubation overnight of lysates with rat anti-mouse CD4 (GK 1.5, Biolegend, San Diego, CA, USA) under gentle agitation at 4°C. The antigen-antibody complex is then added to Protein A/G resin slurry (Pierce, Thermo Fisher scientific), and incubated with gentle mixing for 2 hours at room temperature, and finally microcentrifuged for 30 seconds. The pellet is washed five times with solubilization buffer, and the immunoprecipitated material is eluted by incubating the complex for 2-5 minutes at 95-100°C in Laemmli sample buffer prepared without β-ME. […] Infrared fluorescence of the secondary antibodies was read on an Odyssey Imaging System, and quantification of bands was performed using the ImageStudio Lite software (LI-COR Biosciences).

[1] = system: lentiviral vectors pseudotyped with HIV-1 envelope protein (HXB2-env); assay: Transduction of human CD3+ T cells by HXB2-env pseudotyped lentiviral vectors (GFP); format: cell-based; settings: 400 µM, 72 hours post transduction, vs control
Procedure: CD3^+ T cells, from peripheral blood of healthy individual donors, are purified by positive selection via MACS beads using a magnetic cell sorting system (Miltenyi Biotec). CD3^+ T cells are activated for 3 days at 37°C, 5% CO2 in plates coated with anti-CD3 (10 µg/ml) and anti-CD28 (10 µg/ml) antibodies (both from Miltenyi Biotec) and filled with RPMI 1640 medium supplemented with 10% heat-inactivated fetal calf serum, 100 U/ml penicillin/streptomycin, 2 mM glutamax, 100 IU/ml IL-2 (Miltenyi Biotec). Cells are then transferred on retronectin (20 µg/cm2) coated-plates, in the presence or absence of MnTBAP (400 µM), at a density of 2.5 x 10^5 cells/ml for transduction during 6 h with 6 x 10^7 physical particles (pp)/ml of HXB2-env pseudotyped lentiviral vectors expressing GFP reporter gene under the control of hPGK (human phosphoglycerate kinase 1). After transduction, cells are washed and further incubated for 72 h in fresh culture medium (RPMI 1640 medium supplemented as described above). Cells are then harvested for transduction efficiency analysis by FACS, determined as the percentage of viable (7AAD-) lymphoid cells expressing GFP^+. The data are normalized to be a percentage of the control value (none) from each experiment.

CD4 = assay: Time-lapse microscopy of CD4 cell surface fluorescence; format: cell-based, murine; settings: time lapse for 4 hours, 400 µM, vs control
Procedure: Murine splenic CD4^+ T cells are first stained with CFSE, according to the manufacturer's recommendations (Invitrogen), and then with rat anti-mouse CD4-APC (RM4-5, BD Biosciences) mAb. After staining, cells are incubated in Ibidi's µ-chambers culture dish (Ibidi, Nanterre, France) in the thermo-regulated chamber of the Zeiss Axiovert 100 M confocal microscope. A time lapse acquisition is performed with a delay of 120 sec between frames. Each frame is illuminated using a 488 nm and 633 nm lasers, and fluorescence collected using 505-580 nm and 644-719 nm filters. The magnification is 40x/1.3 oil and images are saved as 8bits. The image stack is splitted using ImageJ-1.43, and images analyzed using CellProfiler 2.0.10415. The cell segmentation is performed on the CFSE fluorescence, and the fluorescence of the CD4 staining analyzed using the R software. Intensity is normalized to the maximum fluorescence measured at T0 for each condition.

[2] = system: Reactive Oxygen Species (ROS); assay: In vivo chemiluminescence imaging of localized inflammation (L-012); design: species or system mice; settings: 4 days after first MnTBAP injection, IM rAAV gene transfer, vs PBS
Procedure: MnTBAP (Calbiochem, San Diego, USA or Enzo Life Sciences, Farmingdale, USA) is dissolved in 75 mM NaOH to constitute a 20 mM stock solution. MnTBAP is dissolved in the complete medium, used for in vitro treatment, containing RPMI-1640 supplemented with 10% heat-inactivated fetal calf serum, 100 U/ml penicillin/streptomycin, 2 mM glutamax and 50 µM β-mercaptoethanol β-ME). Hypertonic medium, used to block clathrin dependent endocytosis, is complete medium supplemented with 0.45 M sucrose. For in vivo treatment, the stock solution is diluted with PBS and administered at 80 mg/kg intraperitoneally daily during five days. Control animals are injected with equivalent volume of PBS.
Intramuscular (IM) injection: Two hours post first intraperitoneal (IP) injection of MnTBAP, mice are anesthetized by IP injection of xylazine (10 mg/kg) and ketamine (100 mg/kg) and 25 µl of a rAAV2/1 CMV SGCA HY viral preparation containing 2.5.10^9 vg is injected in the left tibialis anterior muscle (TA). Controls are injected with PBS. Mice are sacrificed 15 days after vector injection and the injected muscles are harvested to perform histologic analysis. […]
After mice isofluorane anaesthesia, 100 µl of L-012 solution (15 mg/ml) (Wako, Osaka, Japan) are administered intravenously in retro-orbital sinus 4 days after first MnTBAP injection. […] Radiance (ph/s/cm^2/sr) is measured for each Region of Interest (ROI).

[3] = injected TA, vs non-treated control groups

O=C(O)c1ccc(-c2c3nc(c(-c4ccc(C(=O)O)cc4)c4ccc([n-]4)c(-c4ccc(C(=O)O)cc4)c4nc(c(-c5ccc(C(=O)O)cc5)c5ccc2[n-]5)C=C4)C=C3)cc1.[Mn+3] [MnTBAP, manganese [III] tetrakis (4-benzoic acid) porphyrin]
muscle integrity (injected TA muscle; 80 mg/kg IP daily 5 days): normal muscle integrity | CD8a mRNA expression (injected TA muscle; [3]): decrease of CD8a mRNA expression | SGCA transgene expression (injected TA muscle; [3]): increase of the SGCA transgene expression | link between CD4 and P56^Lck (CD4 and P56^Lck): disruption of CD4 and P56^Lck is observed | transduction efficiency of human T cells (GFP^+ cells) [1]: significantly decreased | CD4 cell surface fluorescence over time (CD4): CD4 declines on CD4^+ T cells | Reactive Oxygen Species (ROS), average radiance of left inferior limb [2]: produce less Reactive Oxygen Species (ROS)
